In ChEMBL document CHEMBL5291721, “A preclinical secondary pharmacology resource illuminates target-adverse drug reaction associations of marketed drugs” (Nat Commun, 2023):

Key:
[1] = biological target: Sodium channel protein type 5 subunit alpha (Homo sapiens, UniProt Q14524); format: functional, cell-based
[2] = biological target: T1, Corticotropin-releasing factor receptor 1 (Homo sapiens, UniProt P34998)
T1 sequence (P34998 whole entry): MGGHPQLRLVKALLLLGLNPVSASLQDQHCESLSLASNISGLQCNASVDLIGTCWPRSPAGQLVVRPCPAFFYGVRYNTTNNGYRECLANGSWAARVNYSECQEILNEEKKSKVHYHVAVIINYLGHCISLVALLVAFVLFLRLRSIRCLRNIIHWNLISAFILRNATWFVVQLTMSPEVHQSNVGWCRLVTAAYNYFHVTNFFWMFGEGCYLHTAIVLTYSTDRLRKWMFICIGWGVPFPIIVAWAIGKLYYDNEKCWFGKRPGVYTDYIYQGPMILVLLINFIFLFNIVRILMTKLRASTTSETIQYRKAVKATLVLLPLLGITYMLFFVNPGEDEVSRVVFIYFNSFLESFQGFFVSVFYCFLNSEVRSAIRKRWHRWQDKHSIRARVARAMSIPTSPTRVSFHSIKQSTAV

[3] = biological target: T2, Gastric inhibitory polypeptide receptor (Homo sapiens, UniProt P48546)
T2 sequence (P48546 whole entry): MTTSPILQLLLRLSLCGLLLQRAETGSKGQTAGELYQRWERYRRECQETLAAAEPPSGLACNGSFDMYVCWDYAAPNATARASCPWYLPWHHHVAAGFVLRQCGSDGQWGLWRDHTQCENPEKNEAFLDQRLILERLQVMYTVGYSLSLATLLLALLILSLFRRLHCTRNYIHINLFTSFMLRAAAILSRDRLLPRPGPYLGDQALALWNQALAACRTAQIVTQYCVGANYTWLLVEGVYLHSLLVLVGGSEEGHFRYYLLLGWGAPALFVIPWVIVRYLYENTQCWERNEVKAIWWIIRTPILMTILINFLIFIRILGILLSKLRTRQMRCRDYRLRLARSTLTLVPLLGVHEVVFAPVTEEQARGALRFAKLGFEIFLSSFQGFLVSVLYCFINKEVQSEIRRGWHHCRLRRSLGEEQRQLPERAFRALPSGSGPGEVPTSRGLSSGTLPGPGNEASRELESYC

[4] = biological target: Gamma-aminobutyric acid receptor subunit alpha-1 (Rattus norvegicus, UniProt P62813)
Gamma-aminobutyric acid receptor subunit alpha-1, sequence (P62813 whole entry): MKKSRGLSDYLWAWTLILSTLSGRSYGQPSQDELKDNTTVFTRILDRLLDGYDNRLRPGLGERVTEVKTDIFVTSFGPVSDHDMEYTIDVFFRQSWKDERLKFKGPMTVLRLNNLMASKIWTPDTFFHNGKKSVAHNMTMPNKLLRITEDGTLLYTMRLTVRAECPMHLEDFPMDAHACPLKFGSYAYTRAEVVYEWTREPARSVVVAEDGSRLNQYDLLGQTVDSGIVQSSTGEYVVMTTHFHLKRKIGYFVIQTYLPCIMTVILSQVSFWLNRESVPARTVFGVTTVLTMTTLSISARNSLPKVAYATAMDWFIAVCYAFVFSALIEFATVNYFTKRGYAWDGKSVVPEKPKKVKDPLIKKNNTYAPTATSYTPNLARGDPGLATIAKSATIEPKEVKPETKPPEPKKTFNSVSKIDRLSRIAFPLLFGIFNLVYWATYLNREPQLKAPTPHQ

[5] = biological target: T3, Muscarinic acetylcholine receptor M1 (Homo sapiens, UniProt P11229); format: functional, cell-based
T3 sequence (P11229 whole entry): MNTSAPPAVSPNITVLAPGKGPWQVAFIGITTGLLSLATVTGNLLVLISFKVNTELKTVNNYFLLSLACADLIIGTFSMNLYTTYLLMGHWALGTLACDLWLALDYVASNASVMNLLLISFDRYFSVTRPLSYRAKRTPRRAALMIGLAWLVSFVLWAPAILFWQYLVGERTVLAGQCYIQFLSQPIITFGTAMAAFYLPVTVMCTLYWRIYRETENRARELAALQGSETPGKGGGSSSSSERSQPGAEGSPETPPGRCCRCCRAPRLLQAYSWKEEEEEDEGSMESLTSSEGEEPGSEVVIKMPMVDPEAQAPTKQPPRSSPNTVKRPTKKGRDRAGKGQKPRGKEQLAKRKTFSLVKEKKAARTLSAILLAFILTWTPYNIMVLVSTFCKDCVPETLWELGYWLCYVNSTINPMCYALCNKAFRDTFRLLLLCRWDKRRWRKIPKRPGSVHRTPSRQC

[6] = biological target: T3, Muscarinic acetylcholine receptor M1; format: functional, cell-based; remark: listed apart in the source
[7] = biological target: Gamma-aminobutyric acid receptor subunit alpha-1/alpha-2/beta-2/gamma-2 (Homo sapiens, UniProt P14867+P18507+P47869+P47870); format: functional, cell-based
Gamma-aminobutyric acid receptor subunit alpha-1/alpha-2/beta-2/gamma-2, sequence (P14867 whole entry): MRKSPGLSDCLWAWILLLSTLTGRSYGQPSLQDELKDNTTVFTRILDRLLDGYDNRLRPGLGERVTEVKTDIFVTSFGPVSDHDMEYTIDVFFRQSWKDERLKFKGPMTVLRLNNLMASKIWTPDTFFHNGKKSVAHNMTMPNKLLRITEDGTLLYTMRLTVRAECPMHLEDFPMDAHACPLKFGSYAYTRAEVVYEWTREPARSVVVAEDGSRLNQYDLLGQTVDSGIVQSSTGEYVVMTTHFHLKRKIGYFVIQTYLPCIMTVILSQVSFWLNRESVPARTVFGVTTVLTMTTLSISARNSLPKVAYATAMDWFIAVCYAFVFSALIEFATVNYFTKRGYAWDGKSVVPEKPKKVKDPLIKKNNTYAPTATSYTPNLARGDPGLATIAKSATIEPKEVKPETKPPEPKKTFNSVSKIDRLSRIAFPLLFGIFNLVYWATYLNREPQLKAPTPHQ
Gamma-aminobutyric acid receptor subunit alpha-1/alpha-2/beta-2/gamma-2, sequence (P47870 whole entry): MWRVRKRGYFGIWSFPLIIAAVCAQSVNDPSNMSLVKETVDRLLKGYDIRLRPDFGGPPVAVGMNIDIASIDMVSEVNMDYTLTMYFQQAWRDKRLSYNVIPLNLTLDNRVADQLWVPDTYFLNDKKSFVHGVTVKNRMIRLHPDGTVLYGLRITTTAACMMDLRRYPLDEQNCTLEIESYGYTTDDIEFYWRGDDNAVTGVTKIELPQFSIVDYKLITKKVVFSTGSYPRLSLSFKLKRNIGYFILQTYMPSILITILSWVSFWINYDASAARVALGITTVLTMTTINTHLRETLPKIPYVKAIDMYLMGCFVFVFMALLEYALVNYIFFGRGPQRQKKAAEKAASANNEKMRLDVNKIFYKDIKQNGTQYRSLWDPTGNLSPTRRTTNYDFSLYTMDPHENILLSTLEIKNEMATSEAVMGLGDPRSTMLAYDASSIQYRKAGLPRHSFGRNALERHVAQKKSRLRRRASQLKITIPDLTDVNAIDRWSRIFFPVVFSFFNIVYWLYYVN
Gamma-aminobutyric acid receptor subunit alpha-1/alpha-2/beta-2/gamma-2, sequence (P18507 whole entry): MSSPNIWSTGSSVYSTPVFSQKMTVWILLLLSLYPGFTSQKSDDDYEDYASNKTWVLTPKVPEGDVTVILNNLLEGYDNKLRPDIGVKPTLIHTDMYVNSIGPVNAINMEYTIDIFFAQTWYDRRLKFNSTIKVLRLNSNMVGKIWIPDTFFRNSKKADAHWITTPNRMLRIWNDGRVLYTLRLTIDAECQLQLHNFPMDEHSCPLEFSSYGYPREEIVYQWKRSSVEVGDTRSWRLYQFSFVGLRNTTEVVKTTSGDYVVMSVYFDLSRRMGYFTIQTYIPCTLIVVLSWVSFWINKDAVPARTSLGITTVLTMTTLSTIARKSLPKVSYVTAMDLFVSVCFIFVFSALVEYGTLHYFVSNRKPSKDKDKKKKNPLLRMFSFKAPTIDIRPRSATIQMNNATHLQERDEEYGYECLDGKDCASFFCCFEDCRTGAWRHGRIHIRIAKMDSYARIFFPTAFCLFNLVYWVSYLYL
Gamma-aminobutyric acid receptor subunit alpha-1/alpha-2/beta-2/gamma-2, sequence (P47869 whole entry): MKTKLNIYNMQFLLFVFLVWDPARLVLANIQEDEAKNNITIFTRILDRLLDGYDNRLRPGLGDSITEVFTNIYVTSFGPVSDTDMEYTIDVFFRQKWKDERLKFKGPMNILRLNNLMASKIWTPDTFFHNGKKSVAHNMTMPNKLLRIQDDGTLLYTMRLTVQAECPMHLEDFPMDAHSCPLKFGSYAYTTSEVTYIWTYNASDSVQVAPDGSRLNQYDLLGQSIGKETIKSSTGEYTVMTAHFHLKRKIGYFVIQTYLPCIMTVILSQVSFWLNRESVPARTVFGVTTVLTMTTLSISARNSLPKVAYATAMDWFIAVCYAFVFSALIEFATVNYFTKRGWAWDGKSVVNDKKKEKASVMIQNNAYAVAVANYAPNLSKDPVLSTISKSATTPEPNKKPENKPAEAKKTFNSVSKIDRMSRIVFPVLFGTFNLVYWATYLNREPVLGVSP

[8] = biological target: Synaptic vesicular amine transporter (Rattus norvegicus, UniProt Q01827); format: functional
Synaptic vesicular amine transporter, sequence (Q01827 whole entry): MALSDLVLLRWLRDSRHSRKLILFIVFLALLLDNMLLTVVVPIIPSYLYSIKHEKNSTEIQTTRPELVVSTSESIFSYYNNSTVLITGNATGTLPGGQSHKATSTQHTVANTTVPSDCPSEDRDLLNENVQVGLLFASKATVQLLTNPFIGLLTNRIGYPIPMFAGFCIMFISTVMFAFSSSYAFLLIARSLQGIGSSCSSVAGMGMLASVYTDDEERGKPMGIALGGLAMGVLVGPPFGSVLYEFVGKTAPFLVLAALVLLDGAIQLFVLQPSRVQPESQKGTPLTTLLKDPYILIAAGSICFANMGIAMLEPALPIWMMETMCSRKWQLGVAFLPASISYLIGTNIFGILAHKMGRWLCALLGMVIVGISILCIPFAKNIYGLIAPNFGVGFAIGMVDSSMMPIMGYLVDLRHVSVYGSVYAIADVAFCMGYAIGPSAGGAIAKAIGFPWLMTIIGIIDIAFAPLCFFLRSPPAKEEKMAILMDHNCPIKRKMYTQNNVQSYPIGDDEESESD
Note: assay procedure not described here.

Sodium channel protein type 5 subunit alpha, sequence (Q14524 whole entry): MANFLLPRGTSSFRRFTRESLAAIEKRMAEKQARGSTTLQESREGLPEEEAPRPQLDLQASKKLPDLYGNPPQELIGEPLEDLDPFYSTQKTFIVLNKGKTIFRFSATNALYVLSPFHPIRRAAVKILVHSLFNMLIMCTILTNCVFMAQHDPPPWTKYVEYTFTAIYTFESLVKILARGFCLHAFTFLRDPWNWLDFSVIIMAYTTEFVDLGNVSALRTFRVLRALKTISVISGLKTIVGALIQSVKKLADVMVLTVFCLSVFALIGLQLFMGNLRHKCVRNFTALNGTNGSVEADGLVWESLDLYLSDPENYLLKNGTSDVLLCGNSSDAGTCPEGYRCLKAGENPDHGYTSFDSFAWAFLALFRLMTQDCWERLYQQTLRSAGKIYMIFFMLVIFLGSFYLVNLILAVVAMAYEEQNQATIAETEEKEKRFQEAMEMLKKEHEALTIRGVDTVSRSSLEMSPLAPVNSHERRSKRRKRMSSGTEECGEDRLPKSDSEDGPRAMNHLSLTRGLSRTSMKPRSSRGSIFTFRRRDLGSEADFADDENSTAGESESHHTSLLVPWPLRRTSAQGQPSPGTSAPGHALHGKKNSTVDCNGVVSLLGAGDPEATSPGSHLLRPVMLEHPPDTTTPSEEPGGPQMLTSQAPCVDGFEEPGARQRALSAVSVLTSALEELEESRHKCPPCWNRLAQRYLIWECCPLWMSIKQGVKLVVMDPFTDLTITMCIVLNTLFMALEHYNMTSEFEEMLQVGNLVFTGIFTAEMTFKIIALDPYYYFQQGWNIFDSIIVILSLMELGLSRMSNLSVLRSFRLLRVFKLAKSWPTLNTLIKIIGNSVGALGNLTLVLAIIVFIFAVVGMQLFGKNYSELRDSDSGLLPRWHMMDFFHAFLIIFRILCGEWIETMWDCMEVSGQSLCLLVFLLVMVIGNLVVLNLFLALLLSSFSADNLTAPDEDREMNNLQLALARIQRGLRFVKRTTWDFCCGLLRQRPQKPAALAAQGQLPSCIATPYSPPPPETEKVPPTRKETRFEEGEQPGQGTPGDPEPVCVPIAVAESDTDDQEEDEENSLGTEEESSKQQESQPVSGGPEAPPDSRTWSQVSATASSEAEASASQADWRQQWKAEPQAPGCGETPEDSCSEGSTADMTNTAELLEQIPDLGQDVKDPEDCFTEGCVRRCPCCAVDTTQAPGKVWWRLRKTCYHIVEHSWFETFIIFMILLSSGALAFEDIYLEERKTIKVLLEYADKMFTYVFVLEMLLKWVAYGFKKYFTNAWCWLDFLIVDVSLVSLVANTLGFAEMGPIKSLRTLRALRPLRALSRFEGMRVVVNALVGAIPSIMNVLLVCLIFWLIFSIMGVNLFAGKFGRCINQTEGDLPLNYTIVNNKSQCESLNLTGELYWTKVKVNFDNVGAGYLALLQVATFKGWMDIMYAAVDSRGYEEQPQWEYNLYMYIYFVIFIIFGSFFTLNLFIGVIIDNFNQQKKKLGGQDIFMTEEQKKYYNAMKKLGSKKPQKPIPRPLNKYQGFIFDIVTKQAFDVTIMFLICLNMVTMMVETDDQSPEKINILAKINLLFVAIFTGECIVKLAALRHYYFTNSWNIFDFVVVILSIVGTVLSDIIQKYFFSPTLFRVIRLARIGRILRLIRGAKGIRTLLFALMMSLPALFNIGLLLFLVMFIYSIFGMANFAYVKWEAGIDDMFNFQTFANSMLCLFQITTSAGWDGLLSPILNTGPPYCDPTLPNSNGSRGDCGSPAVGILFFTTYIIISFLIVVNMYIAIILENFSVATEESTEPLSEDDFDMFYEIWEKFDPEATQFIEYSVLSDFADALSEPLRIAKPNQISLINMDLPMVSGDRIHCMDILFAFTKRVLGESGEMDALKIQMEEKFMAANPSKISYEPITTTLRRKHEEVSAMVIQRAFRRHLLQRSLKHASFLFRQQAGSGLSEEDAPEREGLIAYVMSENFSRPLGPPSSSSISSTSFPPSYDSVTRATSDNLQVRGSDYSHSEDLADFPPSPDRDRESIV

COC(=O)N[C@H](C(=O)N1CCC[C@H]1c1nc(-c2ccc(-c3ccc(-c4c[nH]c([C@@H]5CCCN5C(=O)[C@@H](NC(=O)OC)C(C)C)n4)cc3)cc2)c[nH]1)C(C)C
AC50 [1]: > 30 µM

CCOC(=O)[C@H](CCc1ccccc1)N[C@@H](C)C(=O)N1CCC[C@H]1C(=O)O
AC50 [2]: > 30 µM | AC50 [3]: > 30 µM | AC50 [1]: > 30 µM

Nc1nc(N)c2nc(-c3ccccc3)c(N)nc2n1
AC50 [2]: > 30 µM | AC50 [3]: > 30 µM

C[C@H]1O[C@H](O[C@H]2[C@H](O)[C@@H](O)[C@@H](O[C@H]3[C@H](O)[C@@H](O)C(O)O[C@@H]3CO)O[C@@H]2CO)[C@H](O)[C@@H](O)[C@@H]1N[C@H]1C=C(CO)[C@@H](O)[C@H](O)[C@H]1O (stereo partly drawn) [ACARBOSE]
AC50 [2]: > 30 µM | AC50 [4]: > 30 µM | AC50 [3]: > 30 µM

Oc1ncnc2[nH]ncc12 [ALLOPURINOL]
AC50 [2]: > 30 µM | AC50 [3]: > 30 µM

C(=N\NC1=NCCN1)/c1c2ccccc2c(/C=N/NC2=NCCN2)c2ccccc12 [BISANTRENE]
AC50 [5]: 6.37 µM | AC50 [6]: > 10 µM | AC50 [4]: > 30 µM

CC(C)NCC(O)COc1ccc(COCCOC(C)C)cc1 (stereo not drawn) [BISOPROLOL]
AC50 [2]: > 30 µM | AC50 [3]: > 30 µM | AC50 [1]: > 30 µM

COc1cc(Nc2c(C#N)cnc3cc(OCCCN4CCN(C)CC4)c(OC)cc23)c(Cl)cc1Cl [BOSUTINIB]
AC50 [5]: > 3 µM | AC50 [2]: > 30 µM | AC50 [6]: > 10 µM | AC50 [4]: > 30 µM | AC50 [3]: > 30 µM

N[C@@H](C(=O)N[C@@H]1C(=O)N2C(C(=O)O)=C(Cl)CS[C@H]12)c1ccccc1 [CEFACLOR ANHYDROUS]
AC50 [7]: > 30 µM

CCO/N=C(\C(=O)N[C@@H]1C(=O)N2C(C(=O)[O-])=C(Sc3nc(-c4cc[n+](C)cc4)cs3)CS[C@H]12)c1nsc(N)n1 [CEFTAROLINE]
AC50 [5]: > 30 µM | AC50 [6]: > 30 µM

CCC[C@@H]1C[C@@H](C(=O)N[C@@H]([C@H]2O[C@H](SC)[C@H](O)[C@@H](O)[C@H]2O)[C@H](C)Cl)N(C)C1 [CLINDAMYCIN]
AC50 [8]: > 30 µM | AC50 [2]: > 30 µM | AC50 [3]: > 30 µM

CC(=O)OCC(=O)[C@@]1(O)CC[C@H]2[C@@H]3CCC4=CC(=O)CC[C@]4(C)[C@H]3C(=O)C[C@@]21C [CORTISONE ACETATE]
AC50 [4]: > 30 µM | AC50 [7]: > 30 µM

C[N+](C)(C)CCCCCCCCCC[N+](C)(C)C [DECAMETHONIUM]
AC50 [5]: > 30 µM | AC50 [6]: > 30 µM

O=C1c2ccccc2C(=O)C1C(=O)C(c1ccccc1)c1ccccc1 [DIPHENADIONE]
AC50 [5]: > 3 µM | AC50 [6]: 7.26 µM | AC50 [4]: > 30 µM

CN(CCOc1ccc(NS(C)(=O)=O)cc1)CCc1ccc(NS(C)(=O)=O)cc1 [DOFETILIDE]
AC50 [8]: 1.7 µM | AC50 [5]: > 30 µM | AC50 [2]: > 30 µM | AC50 [6]: > 30 µM | AC50 [3]: > 30 µM

COc1cc2c(cc1OC)C(=O)C(CC1CCN(Cc3ccccc3)CC1)C2 (stereo not drawn) [DONEPEZIL]
AC50 [5]: 5.32 µM | AC50 [2]: > 30 µM | AC50 [6]: > 30 µM | AC50 [3]: > 30 µM

COC(=O)[C@@H]1CC2=CC(=O)CC[C@]2(C)[C@@]23O[C@@H]2C[C@@]2(C)[C@@H](CC[C@@]24CCC(=O)O4)[C@H]13 [EPLERENONE]
AC50 [2]: > 30 µM | AC50 [3]: > 30 µM | AC50 [7]: > 30 µM

CCC(=O)O[C@H]1[C@H](O[C@@H]2[C@@H](C)[C@H](O[C@H]3C[C@@](C)(OC)[C@@H](O)[C@H](C)O3)[C@@H](C)C(=O)O[C@H](CC)[C@@](C)(O)[C@H](O)[C@@H](C)C(=O)[C@H](C)C[C@@]2(C)O)O[C@H](C)C[C@@H]1N(C)C [ERYTHROMYCIN PROPIONATE]
AC50 [4]: > 30 µM

CCOC(=O)c1ccc(O)cc1 [ETHYLPARABEN]
AC50 [8]: 22 µM | AC50 [5]: > 30 µM | AC50 [6]: > 30 µM

O=C1[C@H](CC[C@H](O)c2ccc(F)cc2)[C@@H](c2ccc(O)cc2)N1c1ccc(F)cc1 [EZETIMIBE]
AC50 [5]: 4.55 µM | AC50 [6]: > 30 µM

NC(N)=Nc1nc(CSCCC(N)=NS(N)(=O)=O)cs1 [FAMOTIDINE]
AC50 [2]: > 30 µM | AC50 [3]: > 30 µM

O=C(COc1ccc(Cl)cc1)N1CCN(Cc2ccc3c(c2)OCO3)CC1 [FIPEXIDE]
AC50 [8]: 0.15 µM | AC50 [5]: 6.27 µM | AC50 [6]: > 30 µM | AC50 [1]: > 50 µM

CCC(=O)c1c(O)cc(O)cc1O [FLOPROPIONE]
AC50 [5]: > 30 µM | AC50 [6]: > 30 µM

NS(=O)(=O)c1cc2c(cc1Cl)NCNS2(=O)=O [HYDROCHLOROTHIAZIDE]
AC50 [2]: > 30 µM | AC50 [3]: > 30 µM

C#C[C@]1(O)CC[C@H]2[C@@H]3CCC4=CC(=O)CC[C@@H]4[C@H]3CC[C@@]21CC [LEVONORGESTREL]
AC50 [4]: 3.44 µM

OC[C@@H](O)[C@@H](O)[C@H](O)[C@H](O)CO [MANNITOL]
AC50 [8]: > 30 µM | AC50 [4]: > 30 µM

CN1CCCC(CN2c3ccccc3Sc3ccccc32)C1 (stereo not drawn) [MEPAZINE]
AC50 [4]: > 30 µM

CN1C(=O)CC(C)(c2ccccc2)C1=O (stereo not drawn) [METHSUXIMIDE]
AC50 [8]: > 30 µM

CC(=O)Oc1c(C)cc(OCC(O)CNC(C)C)c(C)c1C (stereo not drawn) [METIPRANOLOL]
AC50 [5]: > 30 µM | AC50 [6]: > 30 µM | AC50 [4]: > 30 µM

CCN(CC)CCNC(=O)c1cc(Cl)c(N)cc1OC [METOCLOPRAMIDE]
AC50 [2]: > 30 µM | AC50 [3]: > 30 µM

NC(=O)c1ncn([C@@H]2O[C@H](CO)[C@@H](O)[C@H]2O)c1O [MIZORIBINE]
AC50 [7]: > 30 µM

O=C1CC[C@@]2(O)[C@H]3Cc4ccc(O)c5c4[C@@]2(CCN3CC2CC2)[C@H]1O5 [NALTREXONE]
AC50 [4]: > 30 µM

CCc1nn(CCCN2CCN(c3cccc(Cl)c3)CC2)c(=O)n1CCOc1ccccc1 [NEFAZODONE]
AC50 [2]: > 30 µM | AC50 [3]: > 30 µM

COC(=O)C1=C(C)NC(C)=C(C(=O)OCC(C)C)C1c1ccccc1[N+](=O)[O-] (stereo not drawn) [NISOLDIPINE]
AC50 [1]: 8.6 µM

OCCN1CCN(CCCN2c3ccccc3C=Cc3ccccc32)CC1 [OPIPRAMOL]
AC50 [5]: 25.7 µM | AC50 [6]: > 30 µM | AC50 [4]: > 30 µM | AC50 [7]: > 30 µM

CC(N/C(=N\C#N)Nc1ccncc1)C(C)(C)C (stereo not drawn) [PINACIDIL ANHYDROUS]
AC50 [5]: > 30 µM | AC50 [6]: > 30 µM

CCc1ccc(CCOc2ccc(CC3SC(=O)NC3=O)cc2)nc1 (stereo not drawn) [PIOGLITAZONE]
AC50 [2]: > 30 µM | AC50 [4]: > 30 µM | AC50 [3]: > 30 µM

CC(C(=O)O)c1ccc(N2CC=CC2)c(Cl)c1 (stereo not drawn) [PIRPROFEN]
AC50 [5]: 28.7 µM | AC50 [2]: > 30 µM | AC50 [6]: > 30 µM | AC50 [3]: > 30 µM

CC(O)CO (stereo not drawn) [PROPYLENE GLYCOL]
AC50 [8]: > 30 µM

NC(=O)c1cnccn1 [PYRAZINAMIDE]
AC50 [2]: > 30 µM | AC50 [3]: > 30 µM

CN(C)C(=O)Oc1ccc[n+](C)c1 [PYRIDOSTIGMINE]
AC50 [5]: > 30 µM | AC50 [6]: > 30 µM

Cc1cc2c(cc1CC(=O)c1sccc1S(=O)(=O)Nc1onc(C)c1Cl)OCO2 [SITAXENTAN]
AC50 [4]: > 30 µM

CC(C)OC(=O)[C@H](C)N[P@](=O)(OC[C@H]1O[C@@H](n2ccc(=O)[nH]c2=O)[C@](C)(F)[C@@H]1O)Oc1ccccc1 [SOFOSBUVIR]
AC50 [8]: > 30 µM | AC50 [5]: > 30 µM | AC50 [6]: > 30 µM | AC50 [1]: > 50 µM

CS(=O)(=O)c1ccc([C@@H](O)[C@@H](CO)NC(=O)C(Cl)Cl)cc1 [THIAMPHENICOL]
AC50 [8]: > 30 µM | AC50 [4]: > 30 µM | AC50 [1]: > 50 µM

Cc1ccc(O)c2ncccc12 [TILIQUINOL]
AC50 [5]: > 30 µM | AC50 [6]: > 30 µM | AC50 [4]: > 30 µM

CC(=O)OC[C@H]1O[C@@H](n2ccc(=O)[nH]c2=O)[C@H](OC(C)=O)[C@@H]1OC(C)=O [URIDINE TRIACETATE]
AC50 [8]: > 30 µM | AC50 [5]: > 30 µM | AC50 [6]: > 30 µM | AC50 [4]: > 30 µM

CCCS(=O)(=O)Nc1ccc(F)c(C(=O)c2c[nH]c3ncc(-c4ccc(Cl)cc4)cc23)c1F [VEMURAFENIB]
AC50 [1]: > 30 µM

O=C(CCCCCCC(=O)Nc1ccccc1)NO [VORINOSTAT]
AC50 [7]: > 30 µM
